Test results: PMC10906247, “From Functional Fatty Acids to Potent and Selective Natural-Product-Inspired Mimetics via Conformational Profiling” (ACS Central Science, 2024)
Where “and” joins values, the source holds several entries; their conditions need not be identical. Equal entries are not always repeated. Where two headings read alike, the source gives them in different places. Each block holds one compound with its values, some of them ahead of it.

Experiments:
[1] = Metabolic stability / intrinsic clearance in cryopreserved human hepatocytes; conditions: for hepatocyte CLint at 1 µM / half-life at 1 µM: human, cryopreserved human hepatocytes
Procedure: To gain insight into potential metabolic issues, a preliminary assessment of 1-E and 3-C in a metabolic stability assay utilizing human hepatocytes was conducted.
7.1. ADME-Tox: In Vitro Metabolism
Intrinsic clearance (cr yopreserved hepatocytes, human)
Note: Unit of Clint is µ L/min/mg for microsomes, S9 and UGT assa ys; µL/min/pmol for CYP assays; µ L/min/Million cells for hepatocyte assays […]
8.1. Experimental Conditions
8.1.1. ADME-Tox: In Vitro Metabolism
8.2. Analysis and expression of results
8.2.1. ADME-Tox: In Vitro Metabolism
Intrinsic Clearance (microsomes, S9, cryopreserved hepatocytes, reco mbinant CYP, recombinant UGT) Metabolic stability, expressed as percent of the parent compound remaining , was calculated by comparing the peak area of the compound at the time point relative to that at time -0. The ha lf-life (T1/2) was estimated from the slope of the initial linear range of the logarithmic curve of compound remaining (%) vs. time, assu ming the first -order kinetics. The apparent intrinsic cleara nce (CLint, in µL/min/pmol, µL/min/mg or µL/min/Mcell ) was calculated according to the following formula: […]
T1/2*(mg protein/µL or million cells/µL or pmol CYP iso zyme/µL)

[2] = molecular target: T1, TLX ligand binding domain (Homo sapiens, UniProt Q9Y466); assay: TLX ligand sensing assay (AlphaScreen, RIP140 NR box peptide recruitment); type: biochemical; conditions: for TLX max. efficacy: oleic acid = 100
T1 construct: purchased NovAliX SAS, Strasbourg, France
T1 sequence (Q9Y466 155-383 limits assumed): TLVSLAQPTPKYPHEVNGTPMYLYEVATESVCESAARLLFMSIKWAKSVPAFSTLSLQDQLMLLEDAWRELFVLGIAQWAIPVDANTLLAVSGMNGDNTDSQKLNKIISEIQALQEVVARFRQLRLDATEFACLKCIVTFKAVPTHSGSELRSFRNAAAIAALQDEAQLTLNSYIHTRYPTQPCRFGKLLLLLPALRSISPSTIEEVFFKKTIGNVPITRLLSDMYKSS

GPR40 (FFAR1) = GPR40 (FFAR1) (Homo sapiens, UniProt O14842); assay: PathHunter β-arrestin assay (Eurofins Discovery), GPR40; type: cell-based; conditions: for GPR40 potency relative to oleic acid: EC50 ratio vs control oleic acid; for EC50 / GPR40 max. efficacy: dose-response; for EC50: β-arrestin assay, read-out: GPR40 EC50 measured; for GPR40 max. efficacy: oleic acid = 100
Sequence of GPR40 (FFAR1) (O14842 whole entry): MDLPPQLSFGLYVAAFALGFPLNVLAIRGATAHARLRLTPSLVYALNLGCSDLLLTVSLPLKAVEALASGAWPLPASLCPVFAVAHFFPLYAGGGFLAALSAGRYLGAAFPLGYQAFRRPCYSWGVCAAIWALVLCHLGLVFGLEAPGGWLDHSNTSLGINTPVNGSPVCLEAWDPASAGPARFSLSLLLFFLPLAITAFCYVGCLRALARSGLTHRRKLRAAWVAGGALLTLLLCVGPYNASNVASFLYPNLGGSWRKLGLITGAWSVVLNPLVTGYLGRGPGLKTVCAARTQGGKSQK
Procedure: (§1) With these compounds in hand, attention was directed at evaluating their properties as ligands to GPR40, GPR120,[24] and TLX. Initial profiling experiments were conducted targeting the GPCR targets at a single concentration (15 μM) in a commercially available β-arrestin assay.
(§2) Functional assays at GPR40 and GPR120 were conducted by Eurofins Discovery services using their PathHunter® b-Arrestin assay that monitors the activation of a GPCR in a homogenous, non-imaging assay format using a technology developed by DiscoverX called Enzyme Fragment Complementation (EFC) with b-galactosidase (b-Gal) as the functional reporter. b-Arrestin GPCR cell lines built on the principles of EFC are engineered to co-express the ProLinkTM (PK) tagged GPCR and the Enzyme Acceptor (EA) tagged b-Arrestin. Activation of the GPCR-PK induces b-Arrestin-EA recruitment, forcing complementation of the two b-galactosidase enzyme fragments (EA and PK). The resulting functional enzyme hydrolyzes substrate to generate chemiluminescent […]
(§3) Additional information can be found at: www.eurofinsdiscovery.com/solution/b-arrestin Below are dose-response curves generated from Eurofins Discovery services for activity of ligands depicted in Figure 6B at GPR40 (FFAR1) and GPR120. […]

GPR120 = molecular target: T2, GPR120 (Homo sapiens, UniProt Q5NUL3); assay: PathHunter β-arrestin assay (Eurofins Discovery), GPR120; type: cell-based; conditions: for EC50: β-arrestin assay, read-out: GPR120 EC50 measured; for GPR120 max. efficacy: oleic acid = 100
T2 sequence (Q5NUL3 1-361): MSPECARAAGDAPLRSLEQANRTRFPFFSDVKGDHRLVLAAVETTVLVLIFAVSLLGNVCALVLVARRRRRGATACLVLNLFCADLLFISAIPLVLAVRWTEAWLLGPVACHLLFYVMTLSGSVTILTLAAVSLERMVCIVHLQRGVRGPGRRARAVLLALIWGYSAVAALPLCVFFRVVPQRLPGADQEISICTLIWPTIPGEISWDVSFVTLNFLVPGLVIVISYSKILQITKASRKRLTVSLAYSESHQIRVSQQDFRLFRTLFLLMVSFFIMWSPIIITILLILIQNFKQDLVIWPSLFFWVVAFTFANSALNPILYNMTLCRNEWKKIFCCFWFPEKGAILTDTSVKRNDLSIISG
Procedure: as §1, §2, §3

[3] = Half-life (mean), human hepatocytes, 1.0E-06 M
[4] = Half-life, single replicates (1st, 2nd, 3rd), human hepatocytes, 1.0E-06 M
[5] = ALPHA normalized, supplement, read-out: TLX EC50 (dose-response curves)
[6] = maximal efficacy measured at 100 μM
[7] = incubation 30 minutes, 1.0E-06 M
[8] = incubation 60 minutes, 1.0E-06 M
[9] = incubation 90 minutes, 1.0E-06 M
[10] = incubation 120 minutes, 1.0E-06 M
[11] = coactivator recruitment, read-out: TLX EC50

Compound: C=CCN1CC[C@]23c4c5ccc(O)c4O[C@H]2C(=O)CC[C@@]3(O)[C@H]1C5 [Naloxone, reference compound]
Half-life, single replicates (1st, 2nd, 3rd) ([1]; human hepatocytes, 1.0E-06 M): 1.47 h and 1.852 h
hepatocyte CLint at 1 µM [1]: 10.1 µL/min/1e6 cells
half-life at 1 µM [1, 3]: 1.65 h
half-life at 1 µM [1, 4]: 1.61 h

Compound: CCCCCCCCC[C@H](C)/C=C(/C)C/C(C)=C/[C@H](C)CC(=O)O [1-E]
GPR40 potency relative to oleic acid (GPR40 (FFAR1)): 14 times
EC50 (GPR40 (FFAR1)): 2.6 µM
GPR40 max. efficacy (GPR40 (FFAR1)): 75%
EC50 (GPR120; dose-response): > 47 µM
GPR120 max. efficacy (GPR120; [6]): 32%
EC50 [2, 5]: 1.68 µM
Half-life, single replicates (1st, 2nd, 3rd) ([1]; human hepatocytes, 1.0E-06 M, listed as GCM/LEM 1-E): 3.445 h and 2.168 h and 4.453 h
hepatocyte CLint at 1 µM [1]: 5.4 µL/min/1e6 cells
half-life at 1 µM [1, 3]: 3.35 h
% Compound Remaining, mean [1, 7]: 96 % remaining
% Compound Remaining, single replicates (1st, 2nd, 3rd) ([1]; incubation 30 minutes, 1.0E-06 M, listed as GCM/LEM 1-E): 99.4 % remaining and 103.0 % remaining and 86.6 % remaining
% Compound Remaining, mean [1, 8]: 98 % remaining
% Compound Remaining, single replicates (1st, 2nd, 3rd) ([1]; incubation 60 minutes, 1.0E-06 M, listed as GCM/LEM 1-E): 83.9 % remaining and 103.8 % remaining and 106.9 % remaining
% Compound Remaining, mean [1, 9]: 85 % remaining
% Compound Remaining, single replicates (1st, 2nd, 3rd) ([1]; incubation 90 minutes, 1.0E-06 M, listed as GCM/LEM 1-E): 79.1 % remaining and 80.4 % remaining and 96.1 % remaining
% Compound Remaining, mean [1, 10]: 61 % remaining
% Compound Remaining, single replicates (1st, 2nd, 3rd) ([1]; incubation 120 minutes, 1.0E-06 M, listed as GCM/LEM 1-E): 67.8 % remaining and 50.9 % remaining and 64.3 % remaining

Compound: O=c1cc(C(F)(F)F)c2ccc(O)cc2o1 [HFC, reference compound]
CLint ([1]; human hepatocytes, 1.0E-06 M): 47.3 μL/min/million cells
Half-life (mean) ([1]; human hepatocytes, 1.0E-06 M): 0.35 h
Half-life, single replicates (1st, 2nd, 3rd) ([1]; human hepatocytes, 1.0E-06 M): 0.348 h and 0.352 h and 0.347 h

Compound: CCCCCCCCC[C@H](C)/C=C(/C)C/C(C)=C/[C@@H](C)CC(=O)O [1-F]
EC50 (GPR40 (FFAR1)): 7.2 µM
GPR40 max. efficacy (GPR40 (FFAR1)): 123%
EC50 (GPR120; dose-response): > 42 µM
GPR120 max. efficacy (GPR120; [6]): 31%
EC50 [2, 5]: 1.87 µM

Compound: CCCCC[C@@H](C)/C=C(/C)C/C(C)=C/[C@H](C)CCCCCC(=O)O [3-C]
EC50 [2, 5]: 0.818 µM
EC50 [2, 11]: 0.8 µM
TLX max. efficacy [2]: 66%
Half-life, single replicates (1st, 2nd, 3rd) ([1]; human hepatocytes, 1.0E-06 M, listed as GCM/LEM 3-C): 1.862 h and 1.848 h
hepatocyte CLint at 1 µM [1]: 8.7 µL/min/1e6 cells
half-life at 1 µM [1, 3]: 1.9 h
half-life at 1 µM [1, 4]: 1.97 h
% Compound Remaining, mean [1, 7]: 96 % remaining
% Compound Remaining, single replicates (1st, 2nd, 3rd) ([1]; incubation 30 minutes, 1.0E-06 M, listed as GCM/LEM 3-C): 97.3 % remaining and 95.1 % remaining and 96.7 % remaining
% Compound Remaining, mean [1, 8]: 75 % remaining
% Compound Remaining, single replicates (1st, 2nd, 3rd) ([1]; incubation 60 minutes, 1.0E-06 M, listed as GCM/LEM 3-C): 72.5 % remaining and 71.7 % remaining and 79.8 % remaining
% Compound Remaining, mean [1, 9]: 57 % remaining
% Compound Remaining, single replicates (1st, 2nd, 3rd) ([1]; incubation 90 minutes, 1.0E-06 M, listed as GCM/LEM 3-C): 59.1 % remaining and 54.4 % remaining and 53.2 % remaining
% Compound Remaining, mean [1, 10]: 51 % remaining
% Compound Remaining, single replicates (1st, 2nd, 3rd) ([1]; incubation 120 minutes, 1.0E-06 M, listed as GCM/LEM 3-C): 53.3 % remaining and 52.1 % remaining and 48.9 % remaining

Compound: CCC[C@@H](C)/C=C(/C)C/C(C)=C/[C@H](C)CCCCCCCC(=O)O [4-C]
activity against GPR120 (GPR120; from Figure 6A, 15 μM): inactive
EC50 [2, 5]: 1.53 µM

More lines, in order of falling EC50 [2, 5], values ahead:

EC50 [2, 5]: 2.51 µM
Compound: CCCCCCCC/C=C(/C)C/C(C)=C/[C@H](C)CCCC(=O)O [2-A]

EC50 [2, 5]: 2.36 µM
Compound: CCCCCCCCCC/C=C(/C)C/C(C)=C/[C@@H](C)CC(=O)O [1-B]

EC50 [2, 5]: 1.89 µM
Compound: CCC[C@H](C)/C=C(/C)C/C(C)=C/[C@@H](C)CCCCCCCC(=O)O [4-F]

EC50 [2, 5]: 1.57 µM
Compound: CCC[C@@H](C)/C=C(/C)C/C(C)=C/[C@@H](C)CCCCCCCC(=O)O [4-D]

EC50 [2, 5]: 1.52 µM
Compound: CCCC/C=C(/C)C/C(C)=C/[C@H](C)CCCCCCCC(=O)O [4-A]

GPR40 potency relative to oleic acid (GPR40 (FFAR1)): ~7 times
EC50 (GPR40 (FFAR1)): 6.2 µM and ~5 µM
GPR40 max. efficacy (GPR40 (FFAR1)): 95%
EC50 (GPR120; dose-response): 2.6 µM
GPR120 max. efficacy (GPR120; dose-response): 31%
EC50 [2, 5]: 1.51 µM
Compound: CCCCCCC[C@@H](C)/C=C(/C)C/C(C)=C/[C@H](C)CCCC(=O)O [2-C]

GPR40 potency relative to oleic acid (GPR40 (FFAR1)): ~7 times
EC50 (GPR40 (FFAR1)): 5 µM and ~5 µM
GPR40 max. efficacy (GPR40 (FFAR1)): 68%
selectivity for GPR120 (GPR120; GPR120 over GPR40): 5 fold
EC50 (GPR120; dose-response): 1.1 µM
GPR120 max. efficacy (GPR120; dose-response): 35%
EC50 [2, 5]: 1.31 µM
Compound: CCCCCCC[C@H](C)/C=C(/C)C/C(C)=C/[C@H](C)CCCC(=O)O [2-E]

EC50 [2, 5]: 0.934 µM
EC50 [2, 11]: 0.9 µM
TLX max. efficacy [2]: 79%
Compound: CCCCCC/C=C(/C)C/C(C)=C/[C@@H](C)CCCCCC(=O)O [3-B]
